We go through two compounds from BindingDB's records for PubMed 38477709 (Washington University School of Medicine).

The target in this assay is Coagulation factor X (Homo sapiens, UniProt P00742). Description: Inhibition of factor Xa (unknown origin) using Bz-lle-Glu-Gly-Arg-pNA as chromogenic substrate preincubated for 30 mins followed by substrate addition by absorbance based analysis.

Where only a bound is given, the exact number is not on record here.

Chain of Coagulation factor X (P00742 41-179 limits assumed): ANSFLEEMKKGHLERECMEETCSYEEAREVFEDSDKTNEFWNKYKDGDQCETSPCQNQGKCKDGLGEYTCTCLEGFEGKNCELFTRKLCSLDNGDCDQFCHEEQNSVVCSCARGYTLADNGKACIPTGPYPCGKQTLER
Chain of Coagulation factor X (P00742 235-488 limits assumed): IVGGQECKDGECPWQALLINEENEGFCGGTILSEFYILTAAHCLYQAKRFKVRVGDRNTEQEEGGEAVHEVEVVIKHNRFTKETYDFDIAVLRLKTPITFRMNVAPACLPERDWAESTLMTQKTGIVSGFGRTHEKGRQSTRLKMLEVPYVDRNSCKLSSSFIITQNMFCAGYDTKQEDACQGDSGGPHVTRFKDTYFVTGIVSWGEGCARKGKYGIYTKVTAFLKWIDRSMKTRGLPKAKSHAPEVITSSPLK

A word on the IC50: it is the concentration at which inhibition is half-maximal. Consider `CC(=O)N[C@H]1Cc2ccc(cc2)OCC=CCNC(=O)C[C@@H](C(=O)N[C@@H](CCCNC(=N)N)C(=O)c2nc3ccccc3s2)NC(=O)[C@H](CC(C)C)NC1=O`, for which the IC50 was over 20 µM.
`CC(=O)N[C@H]1Cc2ccc(cc2)OCC=CCNC(=O)CC[C@@H](C(=O)N[C@@H](CCCNC(=N)N)C(=O)c2nc3ccccc3s2)NC(=O)[C@H](CC(C)C)NC1=O` returned an IC50 of over 20 µM.
